The values that follow come from patent US20060106015A1, “Novel use of benzothiazole derivatives” (priority 2002, published 2006).

The term IC50 denotes the point on the concentration scale where inhibition reaches its midpoint.

Structures are written as SMILES.

The target in this test is T1, recombinant human Itk kinase domain fused with GST (Homo sapiens, UniProt Q08881).
T1 construct: recombinant human Itk kinase domain fused with GST; GST (Glutathione S-Transferase); made in house; host or cells: High five insect cells
T1 sequence (Q08881 363-615 limits assumed): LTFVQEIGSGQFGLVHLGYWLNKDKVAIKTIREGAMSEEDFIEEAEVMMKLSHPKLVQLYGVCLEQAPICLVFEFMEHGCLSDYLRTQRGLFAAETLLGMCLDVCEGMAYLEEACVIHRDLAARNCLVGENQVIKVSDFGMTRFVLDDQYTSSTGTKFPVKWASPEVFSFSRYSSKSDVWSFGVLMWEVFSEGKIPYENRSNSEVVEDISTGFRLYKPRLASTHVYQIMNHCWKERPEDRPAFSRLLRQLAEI
Kind of test: Itk LANCE TRF Assay. It counts as biochemical. To be noted: 50 μM ATP, 2 μM peptide substrate, 50 minutes RT; read-out: Inhibition of Kinase Itk (IC50 μM). As to the method:
The Itk kinase assay utilized recombinant human Itk kinase domain fused with GST (Glutathione S-Transferase). The protein was expressed in High five insect cells, purified in one step on an affinity chromatography glutathione column and stored in 50 mM Tris/HCl (pH 7.6), 150 mM NaCl, 5% (w/v) mannitol, 1 mM DTT, 30% glycerol at −70° C. The kinase substrate used in the assay was a biotinylated peptide derived from the Src-optimal substrate (Nair et al, J. Med. Chem., 38: 4276, 1995; biotin-AEEEIYGEFEAKKKK).
The assay additions were as follows: Test compounds (or controls; 1 μL in 100% DMSO) were added to black 96-well flat-bottomed plates (Greiner 655076) followed by 20 μL Itk in assay buffer and the reaction was started by adding 20 μL ATP and peptide substrate in assay buffer. The assay buffer constitution during phosphorylation was: 50 mM HEPES (pH 6.8), 10 mM MgCl2, 0.015% Brij 35, 1 mM DTT, 10% glycerol, 160 ng/well Itk, 2 μM peptide substrate and 50 μM ATP. The assay was stopped after 50 minutes (RT) by adding 150 μL ice-cold Stop solution (50 mM Tris/HCl, pH 7.5, 10 mM EDTA, 0.9% NaCl and 0.1% BSA) together with LANCE reagents (2 nM PT66-Eu^3+, Wallac AD0069 and 5 μg/ml Streptavidin-APC, Wallac AD0059. Both concentrations were final in stopped assay solution). The plates were measured on a Wallac 1420 Victor 2 instrument with TRF settings after 1 h incubation, and the ratio (665 signal/615 signal)*10000 was used to calculate the inhibition values. IC50 values were determined using XLfit.
Take `O=C(NCCCN1CCOCC1)c1ccc2nc(-c3ccc(Cl)cc3O)sc2c1` [Example 6, 2-(4-Chloro-2-hydroxyphenyl)-N-(3-morpholin-4-ylpropyl)-1,3-benzothiazole-6-carboxamide]: the IC50 was 0.94 µM.
On to `Oc1ccc(Cl)cc1-c1nc2ccc(CN3CCCC3)cc2s1` [Example 34, 4-Chloro-2-[6-(pyrrolidin-1-ylmethyl)-1,3-benzothiazol-2-yl]phenol], for which the IC50 worked out at 1.47 µM.
Then `OCc1ccc2nc(-c3ccccc3O)sc2c1` [Example 44, 2-[6-(Hydroxymethyl)-1,3-benzothiazol-2-yl]phenol], with 3.04 µM.
